Data from US9113629B2, “4-amino-6-(4-substituted-phenyl)-picolinates and 6-amino-2-(4-substituted-phenyl)-pyrimidine-4-carboxylates and their use as herbicides” (DOW AGROSCIENCES LLC, priority 2013, dated 2015).
Read-outs that look alike come from different tables or passages of the source.

What was measured:
[1] = test system: Key Grass and Sedge Weeds as well as Grass Crops; test: Post-emergent Test II herbicidal activity (Table 6); format: in vivo; settings: post-emergence, 336 h; for pest or weed control at 70 g/ha: 70 g ai/ha; for pest or weed control at 140 g/ha: 140 g ai/ha
Procedure, shortened: (§1)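 Greenhouse post-emergent assay: seedlings (first/second true leaf) in Metro-Mix 360 were sprayed at 187 L/ha at a top rate plus twofold dilutions down to 1/16×; solvent-blank controls were included. Percent visual injury was read at 14 d.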

[2] = test system: Key Broadleaf Weed and Crop Species; test: Post-emergent Test II herbicidal activity (Table 5); format: in vivo; settings: post-emergence, 336 h, 14 days after application; for pest or weed control at 70 g/ha: application rate 70 g ai/ha; for pest or weed control at 140 g/ha: application rate 140 g ai/ha
Procedure, shortened: as §1

[3] = CYPES: yellow nutsedge (Cyperus esculentus), read-out: Visual Growth Reduction (%) 14 Days After Application, CYPES
[4] = DIGSA: crabgrass (Digitaria sanguinalis), read-out: Visual Growth Reduction (%) 14 Days After Application, DIGSA
[5] = ECHCG: barnyardgrass (Echinochloa crus-galli), read-out: Visual Growth Reduction (%) 14 Days After Application, ECHCG
[6] = ORYSA: rice (Oryza sativa), crop, read-out: Visual Growth Reduction (%) 14 Days After Application, ORYSA
[7] = SETFA: giant foxtail (Setaria faberi), read-out: Visual Growth Reduction (%) 14 Days After Application, SETFA
[8] = SORVU: grain sorghum (Sorghum vulgare), read-out: Visual Growth Reduction (%) 14 Days After Application, SORVU
[9] = TRZSS (wheat, Triticum aestivum), crop, read-out: Visual Growth Reduction (%) 14 Days After Application, TRZSS
[10] = ZEAMX: maize, corn (Zea mays), crop, read-out: Visual Growth Reduction (%) 14 Days After Application, ZEAMX
[11] = ABUTH: velvetleaf (Abutilon theophrasti), read-out: Visual Growth Reduction (%) 14 Days After Application, ABUTH
[12] = AMARE: redroot pigweed (Amaranthus retroflexus), read-out: Visual Growth Reduction (%) 14 Days After Application, AMARE
[13] = BRSNN: oilseed-rape, canola (Brassica napus), read-out: Visual Growth Reduction (%) 14 Days After Application, BRSNN
[14] = CHEAL: lambsquarters (Chenopodium album), read-out: Visual Growth Reduction (%) 14 Days After Application, CHEAL
[15] = EPHHL: wild poinsettia (Euphorbia heterophylla), read-out: Visual Growth Reduction (%) 14 Days After Application, EPHHL
[16] = HELAN: sunflower (Helianthus annuus), read-out: Visual Growth Reduction (%) 14 Days After Application, HELAN
[17] = VIOTR: wild pansy (Viola tricolor), read-out: Visual Growth Reduction (%) 14 Days After Application, VIOTR

SMILES | melting point [°C] | pest or weed control at 70 g/ha [1, 3] [%] | pest or weed control at 140 g/ha [1, 3] [%] | pest or weed control at 70 g/ha [1, 4] [%] | pest or weed control at 140 g/ha [1, 4] [%] | pest or weed control at 70 g/ha [1, 5] [%] | pest or weed control at 140 g/ha [1, 5] [%] | pest or weed control at 70 g/ha [1, 6] [%] | pest or weed control at 140 g/ha [1, 6] [%] | pest or weed control at 70 g/ha [1, 7] [%] | pest or weed control at 140 g/ha [1, 7] [%] | pest or weed control at 70 g/ha [1, 8] [%] | pest or weed control at 140 g/ha [1, 8] [%] | pest or weed control at 70 g/ha [1, 9] [%] | pest or weed control at 140 g/ha [1, 9] [%] | pest or weed control at 70 g/ha [1, 10] [%] | pest or weed control at 140 g/ha [1, 10] [%] | pest or weed control at 70 g/ha [2, 11] [%] | pest or weed control at 140 g/ha [2, 11] [%] | pest or weed control at 70 g/ha [2, 12] [%] | further results
COc1c(N)nc(-c2ccc(I)c(F)c2F)nc1C(=O)O [Compound 89] | 119 to 121 | 45 to 59 | 95 to 100 | 45 to 59 | 60 to 74 | 85 to 94 | 85 to 94 | 0 to 29 | 60 to 74 | 85 to 94 | 85 to 94 | 85 to 94 | 95 to 100 | 0 to 29 | 45 to 59 | 45 to 59 | 95 to 100 | 85 to 94 | 95 to 100 | 85 to 94 | pest or weed control at 140 g/ha [2, 12]: 95 to 100%; pest or weed control at 70 g/ha [2, 13]: 95 to 100%; pest or weed control at 140 g/ha [2, 13]: 95 to 100%; pest or weed control at 70 g/ha [2, 14]: 95 to 100%; pest or weed control at 140 g/ha [2, 14]: 95 to 100%; pest or weed control at 70 g/ha [2, 15]: 95 to 100%; pest or weed control at 140 g/ha [2, 15]: 95 to 100%; pest or weed control at 70 g/ha [2, 16]: 95 to 100%; pest or weed control at 140 g/ha [2, 16]: 95 to 100%; pest or weed control at 70 g/ha [2, 17]: 95 to 100%; pest or weed control at 140 g/ha [2, 17]: 95 to 100%
COC(=O)c1nc(-c2ccc(C#N)c(F)c2F)c(F)c(N)c1Cl [Compound 160] | 163 to 164 | 0 to 29 | 0 to 29 | 0 to 29 | 0 to 29 | 0 to 29 | 0 to 29 | 0 to 29 | 0 to 29 | 0 to 29 | 0 to 29 | 0 to 29 | 0 to 29 | 0 to 29 | 0 to 29 | 0 to 29 | 0 to 29 | 30 to 44 | 45 to 59 | 85 to 94 | pest or weed control at 140 g/ha [2, 12]: 95 to 100%; pest or weed control at 70 g/ha [2, 13]: 0 to 29%; pest or weed control at 140 g/ha [2, 13]: 0 to 29%; pest or weed control at 70 g/ha [2, 14]: 60 to 74%; pest or weed control at 140 g/ha [2, 14]: 75 to 84%; pest or weed control at 70 g/ha [2, 15]: 45 to 59%; pest or weed control at 140 g/ha [2, 15]: 60 to 74%; pest or weed control at 70 g/ha [2, 16]: 85 to 94%; pest or weed control at 140 g/ha [2, 16]: 95 to 100%; pest or weed control at 70 g/ha [2, 17]: 0 to 29%; pest or weed control at 140 g/ha [2, 17]: 0 to 29%
C#Cc1ccc(-c2nc(C(=O)OC)c(Cl)c(N)c2F)c(F)c1 [Compound 121] | 186 to 188 | 45 to 59 | 45 to 59 | 0 to 29 | 0 to 29 | 0 to 29 | 0 to 29 | 0 to 29 | 0 to 29 | 0 to 29 | 0 to 29 | 45 to 59 | 60 to 74 | 0 to 29 | 0 to 29 | 95 to 100 | 95 to 100 | 85 to 94 | 85 to 94 | 0 to 29 | pest or weed control at 140 g/ha [2, 12]: 0 to 29%; pest or weed control at 70 g/ha [2, 13]: 85 to 94%; pest or weed control at 140 g/ha [2, 13]: 95 to 100%; pest or weed control at 70 g/ha [2, 14]: 75 to 84%; pest or weed control at 140 g/ha [2, 14]: 95 to 100%; pest or weed control at 70 g/ha [2, 15]: 45 to 59%; pest or weed control at 140 g/ha [2, 15]: 95 to 100%; pest or weed control at 70 g/ha [2, 16]: 85 to 94%; pest or weed control at 140 g/ha [2, 16]: 95 to 100%; pest or weed control at 70 g/ha [2, 17]: 0 to 29%; pest or weed control at 140 g/ha [2, 17]: 0 to 29%

Continued, in another order:

melting point [°C] | SMILES | pest or weed control at 70 g/ha [1, 3] [%] | pest or weed control at 140 g/ha [1, 3] [%] | pest or weed control at 70 g/ha [1, 4] [%] | pest or weed control at 140 g/ha [1, 4] [%] | pest or weed control at 70 g/ha [1, 5] [%] | pest or weed control at 140 g/ha [1, 5] [%] | pest or weed control at 70 g/ha [1, 6] [%] | pest or weed control at 140 g/ha [1, 6] [%] | pest or weed control at 70 g/ha [1, 7] [%] | pest or weed control at 140 g/ha [1, 7] [%] | pest or weed control at 70 g/ha [1, 8] [%] | pest or weed control at 140 g/ha [1, 8] [%] | pest or weed control at 70 g/ha [1, 9] [%] | pest or weed control at 140 g/ha [1, 9] [%] | pest or weed control at 70 g/ha [1, 10] [%] | pest or weed control at 140 g/ha [1, 10] [%] | pest or weed control at 70 g/ha [2, 11] [%] | pest or weed control at 140 g/ha [2, 11] [%] | pest or weed control at 70 g/ha [2, 12] [%] | further results
133 to 135 | COc1c(N)nc(-c2ccc(Br)cc2F)nc1C(=O)O [Compound 46] | 95 to 100 | 95 to 100 | 45 to 59 | 60 to 74 | 85 to 94 | 85 to 94 | 0 to 29 | 0 to 29 | 75 to 84 | 85 to 94 | 45 to 59 | 60 to 74 | 45 to 59 | 60 to 74 | 45 to 59 | 45 to 59 | 95 to 100 | 95 to 100 | 85 to 94 | pest or weed control at 140 g/ha [2, 12]: 95 to 100%; pest or weed control at 70 g/ha [2, 13]: 95 to 100%; pest or weed control at 140 g/ha [2, 13]: 95 to 100%; pest or weed control at 70 g/ha [2, 14]: 95 to 100%; pest or weed control at 140 g/ha [2, 14]: 95 to 100%; pest or weed control at 70 g/ha [2, 15]: 95 to 100%; pest or weed control at 140 g/ha [2, 15]: 95 to 100%; pest or weed control at 70 g/ha [2, 16]: 85 to 94%; pest or weed control at 140 g/ha [2, 16]: 95 to 100%; pest or weed control at 70 g/ha [2, 17]: 45 to 59%; pest or weed control at 140 g/ha [2, 17]: 95 to 100%
136 to 138 | COC(=O)c1nc(-c2ccc(I)cc2F)c(F)c(N)c1Cl [Compound 9] | 0 to 29 | 0 to 29 | 0 to 29 | 0 to 29 | 0 to 29 | 0 to 29 | 0 to 29 | 0 to 29 | 0 to 29 | 0 to 29 | 0 to 29 | 0 to 29 | 0 to 29 | 0 to 29 | 0 to 29 | 0 to 29 | 0 to 29 | 0 to 29 | 0 to 29 | pest or weed control at 140 g/ha [2, 12]: 0 to 29%; pest or weed control at 70 g/ha [2, 13]: 0 to 29%; pest or weed control at 140 g/ha [2, 13]: 0 to 29%; pest or weed control at 70 g/ha [2, 14]: 0 to 29%; pest or weed control at 140 g/ha [2, 14]: 0 to 29%; pest or weed control at 70 g/ha [2, 15]: 0 to 29%; pest or weed control at 140 g/ha [2, 15]: 0 to 29%; pest or weed control at 70 g/ha [2, 16]: 0 to 29%; pest or weed control at 140 g/ha [2, 16]: 0 to 29%; pest or weed control at 70 g/ha [2, 17]: 0 to 29%; pest or weed control at 140 g/ha [2, 17]: 0 to 29%
